Reference: PMC8510269, “A Simple Method of Synthesis of 3-Carboxy-2,2,5,5-Tetraethylpyrrolidine-1-oxyl and Preparation of Reduction-Resistant Spin Labels and Probes of Pyrrolidine Series” (Molecules, 2021)
Read-outs that look alike come from different tables or passages of the source.

What was measured:
[1] = Reduction of nitroxides with ascorbate in the presence of glutathione (EPR kinetics); type: physicochemical; settings: nitroxide 0.3–0.4 mM, ascorbate 100–300 mM, 50 mM phosphate buffer, pH 7.4, 25 °C, glutathione 2 mM
Procedure: The EPR spectra in water were recorded on a Bruker ER-200D-SRC spectrometer in 50 µL glass capillary for 0.2–0.4 mM radical solutions degassed via bubbling with argon. Spectrometer settings: frequency, 9.87 GHz; microwave power, 5.0 mW; modulation amplitude, 0.05 mT; time constant, 50–100 ms; and conversion time, 5.12 ms. […] All the solutions were deoxygenated with argon, carefully and quickly mixed in a small tube to attain final concentrations (nitroxide, 0.2–04 mM; GSH, 2 mM; and ascorbate, 100–300 mM) and were placed into an EPR capillary (50 μL). The capillary was sealed on both sides and placed into the EPR resonator. The decay of amplitude of the low-field component of the EPR spectrum was followed to obtain the kinetics. The initial part of the decay curves (up to 200 min) was used for fitting. Kinetics of the decay was fitted to a monoexponential function to calculate the first-order rate constants. Then, these constants were divided by the concentration of ascorbic acid to calculate the second-order reaction constants (Figure S3). Partition coefficients in a water–octanol mixture were estimated from the amplitudes of the EPR spectra of a nitroxide in water after extensive shaking with different portions of added octanol and separation using centrifugation.

[2] = Decay of nitroxides in murine blood (EPR); type: in vitro ADME, mice; settings: nitroxide 0.2 mM
Procedure: (§1) The measurements of kinetics of nitroxide decay in blood and tissue homogenates were performed using an Elexsys E540 X-band spectrometer in a 50 µL glass capillary for 0.2 mM solutions, with the following spectrometer settings: frequency, 9.87 GHz; centerfield, 350.6 mT; sweep range, 10 mT; microwave power, 2.0 mW; modulation amplitude, 0.1 mT; time constant, 10.24 ms; and conversion time, 20.48 ms.
(§2) The stock solutions of the nitroxides 25 and 31 in water ([…]) were prepared, and pH was adjusted to 7.0 with NaOH. A total of 2 μL of the nitroxide solution was added to 98 μL of the blood or tissue homogenate, giving a nitroxide concentration equal to 0.2 mM. The resulting mixture of nitroxide with blood or tissue homogenate was transferred to the glass capillary (50 μL) and the latter was placed into the EPR resonator. The decay of the double integral of the EPR spectrum was followed to obtain the kinetics.
Male five-month-old C57BL/6 mice were obtained from the Breeding Experimental Animal Laboratory of the Institute of Cytology and Genetics (ICG), Siberian Division of the Russian Academy of Sciences (Novosibirsk, Russia). All the experiments were carried out according to Animal Care Regulations of the Institute of Cytology and Genetics (ICG), Novosibirsk. Animals were sacrificed by decapitation, blood was collected into a microcentrifuge tube with heparin (final concentration 5%), gently rocked by hand and snap-frozen with liquid nitrogen immediately after collection. Organ tissue (brain, heart, liver and kidney) was excised on ice, rinsed with ice-cold 10 mM PBS (pH 7.4), sheared with scissors and homogenized in PBS (1/1 by weight) on ice using electric homogenizer fitted with a Teflon head. The homogenates were then additionally mixed with PBS (1/1 by weight, final dilution 1/3) to decrease viscosity for further aspiration into glass capillaries, and snap-frozen in liquid nitrogen. […]

[3] = Partition coefficient octanol/water estimated from EPR amplitudes; type: physicochemical; settings: ratio of concentrations in octanol to water; distilled water
Procedure: The EPR spectra in water were recorded on a Bruker ER-200D-SRC spectrometer in 50 µL glass capillary for 0.2–0.4 mM radical solutions degassed via bubbling with argon. Spectrometer settings: frequency, 9.87 GHz; microwave power, 5.0 mW; modulation amplitude, 0.05 mT; time constant, 50–100 ms; and conversion time, 5.12 ms. For kinetic measurements in water, stock solutions of nitroxide, ascorbic acid and glutathione in phosphate buffer (5 mM, pH 7.4) were prepared, and pH was adjusted to 7.4 with NaOH or HCl. All the solutions were deoxygenated with argon, carefully and quickly mixed in a small tube to attain final concentrations (nitroxide, 0.2–04 mM; GSH, 2 mM; and ascorbate, 100–300 mM) and were placed into an EPR capillary (50 μL). The capillary was sealed on both sides and placed into the EPR resonator. The decay of amplitude of the low-field component of the EPR spectrum was followed to obtain the kinetics. The initial part of the decay curves (up to 200 min) was used for fitting. Kinetics of the decay was fitted to a monoexponential function to calculate the first-order rate constants. Then, these constants were divided by the concentration of ascorbic acid to calculate the second-order reaction constants (Figure S3). Partition coefficients in a water–octanol mixture were estimated from the amplitudes of the EPR spectra of a nitroxide in water after extensive shaking with different portions of added octanol and separation using centrifugation.

[4] = parameters: method as in PMID 25348344; settings: cited from earlier work
[5] = literature value, cited from earlier work
[6] = Decay of nitroxides in tissue homogenates (brain, kidney, liver, heart; EPR); type: in vitro ADME, mice; settings: nitroxide 0.2 mM
Procedure: as §1, §2
Male five-month-old C57BL/6 mice were obtained from the Breeding Experimental Animal Laboratory of the Institute of Cytology and Genetics (ICG), Siberian Division of the Russian Academy of Sciences (Novosibirsk, Russia). All the experiments were carried out according to Animal Care Regulations of the Institute of Cytology and Genetics (ICG), Novosibirsk. […]

Row | Compound | melting point [°C] | kred × 10^4 (second-order rate constant for the initial rate of reduction with ascorbate) [1] [M^−1 s^−1] | Kp (partition coefficient octanol/water) [3] | also measured
1 | CCC1(CC)CC(C(=O)OC)C(CC)(CC)N1O.Cl (stereo not shown) | 148 to 150 | – | – | –
2 | CCC1(CC)CC(CN)C(CC)(CC)N1[O] (stereo not shown) [Nitroxide 22, 3-Aminomethyl-2,2,5,5-tetraethylpyrrolidine-1-oxyl] | – | 4.1 ± 0.2 | 5.5 | Decay in blood (in words) ([2]; 30 min): No decay
3 | CCC1(CC)CC(C(=O)O)C(CC)(CC)N1[O] (stereo not shown) [Nitroxide 1, 3-Carboxy-2,2,5,5-tetraethylpyrrolidine-1-oxyl] | – | 3.3 ± 0.5 | 270 | Decay in cytosolic extract compared with trityl radical [4]: slower decay in cytosolic extract than trityl radical; kred × 10^4 (second-order rate constant of reduction with ascorbate) ([5]; ref 9): 20 ± 10 M^−1 s^−1; kred × 10^4 (second-order rate constant of reduction with ascorbate) ([5]; ref 14): ≤ 10 M^−1 s^−1; kred × 10^4 (second-order rate constant of reduction with ascorbate) ([5]; ref 45): 12.5 ± 0.3 M^−1 s^−1
4 | CCC1(CC)CC(C(=O)O)C(CC)(CC)N1 (stereo not shown) [Nitroxide 15, 3-Carboxy-2,2,5,5-tetraethylpyrrolidine] | 113 to 114 | – | – | –
5 | CCC1=[N+]([O-])C(CC)(CC)C(C(=O)O)C1 (stereo not shown) [Nitroxide 8, 3-Carboxy-2,2,5-triethyl-3,4-dihydro-2H-pyrrole 1-oxide] | 145 to 146 | – | – | –

Further lines, with some results ahead:

Row | melting point [°C] | kred × 10^4 (second-order rate constant for the initial rate of reduction with ascorbate) [1] [M^−1 s^−1] | Kp (partition coefficient octanol/water) [3] | Compound | also measured
6 | – | 2.4 ± 0.4 | 13 | 3-(2-Triphenylphosphonio)acetamidomethyl-2,2,5,5-tetraethylpyrrolidine-1-oxyl chloride [Nitroxide 28] | Decay in homogenate of brain ([6]; mouse brain homogenate): Faster decay of 28 as compared to 22; Decay in homogenate of liver ([6]; mouse liver homogenate): Faster decay of 28 as compared to 22; Time to plateau of decay in blood [2]: 10 min; Decrease of concentration in blood ([2]; plateaus in 10 min): ca. 10%
7 | – | 2.5 ± 0.4 | 70 | CCC1(CC)CC(CNC(=O)CN2CCCC2)C(CC)(CC)N1[O] (stereo not shown) [Nitroxide 29, 3-(2-(Pyrrolidin-1-yl)acetamidomethyl)-2,2,5,5-tetraethylpyrrolidine-1-oxyl] | –
8 | – | 2.2 ± 0.5 | 30 | CCC1(CC)CC(CN2CCCCC2)C(CC)(CC)N1[O] (stereo not shown) [Nitroxide 30, 3-((Piperidin-1-yl)methyl)-2,2,5,5-tetraethylpyrrolidine-1-oxyl] | –
